Columns and labels:
FXN gene expression = tested on: FXN gene expression; design: method as in PMID 16921367, PMID 18463734; details: FRDA patient cells; cited from earlier work
[1] = Levels of compound in mouse brain and plasma after single injection; format: in vivo; details: single 150 mg/Kg injection
[2] = tested on: frataxin mRNA in PBMC from FRDA patients; assay: FXN mRNA by quantitative real-time RT-PCR in unstimulated PBMC from FRDA patients; format: cell-based, human; details: 10 µM
[3] = tested on: FXN mRNA in healthy volunteers PBMCs; assay: FXN mRNA by qRT-PCR in PBMCs from healthy volunteers; format: cell-based, human; details: 10 µM, 48 h
[4] = tested on: frataxin mRNA in brain and heart of KIKI mice; assay: Fxn mRNA by qRT-PCR in brain and heart of KIKI mice after single subcutaneous injection; format: in vivo, mouse
[5] = tested on: histone acetylation H3K14 and H4K5 at fxn gene; assay: ChIP of H3K14 and H4K5 acetylation upstream of GAA repeat in KIKI mouse brain; format: in vivo; details: KIKI mice, 50 or 150 mg/kg s.c.
[6] = tested on: frataxin mRNA in KIKI splenocytes; assay: Fxn mRNA by qRT-PCR in unstimulated KIKI mouse splenocytes; format: cell-based; details: 10 µM, 48 hours
[7] = tested on: frataxin in brain and heart of wild-type mice; design: method as in PMID 16921367; details: cited from earlier work

Structure (SMILES): CC(/C=C/C(=O)NO)=C\[C@@H](C)C(=O)c1ccc(N(C)C)cc1 [TSA, trichostatin A]
- effect on FXN gene expression (FXN gene expression): inactive

Structure (SMILES): Cc1ccc(C(=O)NCCCCCC(=O)Nc2ccccc2N)cc1 [compound 109]
- time to total elimination from brain and plasma [1]: < 4 h

Structure (SMILES): Nc1ccccc1NC(=O)CCCCCCC(=O)Nc1ccccc1 [BML-210]
- effect on FXN gene expression (FXN gene expression): relieve repression of the FXN gene

Structure (SMILES): Cc1ccc(C(=O)NCCCCCC(=O)Nc2ccc(F)cc2N)cc1 [compound 136]
- effect on frataxin mRNA ([2]; 48 h, compared to 10 µM compound 106): limited effect
- FXN mRNA in healthy volunteers PBMCs [3]: not overall significantly affected
- FXN mRNA trend in healthy volunteers PBMCs ([3]; non-significant): trend toward downregulation
- frataxin mRNA in brain ([4]; single s.c. 150 mg/kg, 24 hours after injection): increase in frataxin mRNA in the brain to wild-type levels
- Fxn mRNA in heart ([4]; single s.c. dose, only at 50 or 150 mg/kg (not 5, 15), p = 0.009 and 0.008): significantly increased
- Fxn mRNA in brain ([4]; single s.c. dose, only at 50 or 150 mg/kg (not 5, 15), p<0.001): significantly increased
- histone acetylation H3K14 and H4K5 upstream of GAA repeat, brain [5]: increase in histone acetylation
- frataxin mRNA upregulation in mouse splenocytes [6]: significant

Structure (SMILES): O=C(CCCCCCC(=O)Nc1ccccc1)NO [SAHA, suberoylanilide hydroxamic acid]
- effect on FXN gene expression (FXN gene expression): inactive

Structure (SMILES): Cc1ccc(NC(=O)CCCCCC(=O)Nc2ccccc2N)cc1 [compound 106, N ^1-(2-aminophenyl)-N ^7-p-tolylheptanediamide, reference compound]
- increase of frataxin mRNA levels, average ([2]; 48-hour incubation, average of patients, DMSO = 1): 3.6 fold
- frataxin mRNA upregulation in mouse splenocytes [6]: significant
- frataxin upregulation in brain and heart of wild-type mice [7]: no frataxin upregulation
